Measured values from PMC7845594, “Novel Immune Modulators Enhance Caenorhabditis elegans Resistance to Multiple Pathogens” (mSphere, 2021).

Assays:
[1] = tested on: glp-4(bn2) worms; experiment: Longevity (life span) assay; conditions: 50 μM in NGM, E. coli OP50, Fig 3A
Procedure: To test the long-term toxicity of the hit compounds, life span assays were carried out by placing sterile, young adult glp-4(bn2) worms on NGM (standard nematode growth media, defined in Materials and Methods) seeded with Escherichia coli OP50. […] Sterile worms were used to eliminate the need to transfer worms between plates during life span assays, and we elected to use glp-4(bn2) to induce sterility instead of using wild-type worms sterilized with 5-fluoro-2′-deoxyuridine (FUDR) because the interaction of the compounds could generate artifacts during the long course of life span experiments.
Worms were scored daily by prodding. […] The viability was normalized to a DMSO solvent control. […] Error bars represent standard error of the mean.
Worms were picked onto agar plates seeded with 50 µl of concentrated E. coli OP50. Compounds were added to liquid agar before pouring plates. Worms were scored every day for death by prodding with a platinum wire. Worms that escaped the plate or died on the wall of the plate were censored. Each compound was tested in at least three biological replicates, each including 50 to 70 worms.

[2] = tested on: glp-4(bn2) worms reared on RNAi, exposed to P. aeruginosa PA14; experiment: P. aeruginosa liquid killing assay after RNAi knockdown; type: in vivo, Caenorhabditis elegans; conditions: for Rescue in liquid killing after RNAi of a panel of phosphatases, kinases, transcription factors and most upregulated genes: Fig S4A; for Rescue in liquid killing after mdt-15(RNAi): P. aeruginosa PA14, LK56 at 32 µM
Excerpt: Based on the presence of effectors for well-known innate immune pathways in the transcriptional profiles of C. elegans exposed to LK molecules, we predicted that the compounds were acting through one or more of these pathways, despite the low levels of reporter activation. To test this, RNAi was used to knock down daf-16/FOXO, elt-2/GATA, pmk-1/p38 MAPK, atf-7/ATF7, or skn-1/Nrf2. Sterile, young adult glp-4(bn2) worms were then exposed to P. aeruginosa under liquid killing conditions in the presence of either DMSO or one of the immunostimulatory compounds.
RNAi conditions measured at different time points are represented by different graphs within the same panel. […] At least six wells, containing 20 worms each, were used per biological replicate to determine survival for each condition, and averages from at least three biological replicates are shown. *, P < 0.05; **, P < 0.01; ***, P < 0.001. P values were calculated using Student’s t test. Error bars represent standard error of the mean.
(A) Sterile, young adult glp-4(bn2) worms were reared on RNAi targeting irid-28, F38B2.4, T24B8.5, mex-5, Y105C5B.15, comt-4, or empty vector and then exposed to P. aeruginosa in the liquid killing assay. (B) Sterile, young adult glp-4(bn2) worms were reared on RNAi targeting met-2, osm-8, rde-4, oga-1, daf-2, lin-35, glp-1, dpy-10, or dpy-9 and then exposed to P. aeruginosa in the liquid killing assay. These genes were chosen using WormEXP with the criterion that gene expression after mutation would be similar (in terms of upregulation and downregulation) to exposure to LK56. Endpoints were collected at different times (to allow DMSO-treated worms to be approximately 30 to 50% dead). Assays collected at different time points are shown on different graphs. […] For each experiment, three biological replicates were performed, with each replicate comprised of six wells with 20 worms/well. Error bars represent standard error of the mean. *, P < 0.05; **, P < 0.01; ***, P < 0.001. P values were calculated using Student’s t test. Download FIG S4, PDF file, 0.2 MB.
Due to its strong rescue and unique transcriptional profile, we also created a panel of genes to test for LK56. […] This effect was specific, since mdt-15(RNAi) had no effect on the ability of LK35 or LK38 to rescue in this assay (Fig. 7B). Importantly, MDT-15 was also required for LK56-mediated rescue in E. faecalis and S. aureus pathogenesis assays (Fig. 7C).
FIG 7 Rescue from pathogens by LK56 requires […]. (A and B) Young adult glp-4(bn2) worms reared on vector or mdt-15(RNAi) were incubated with P. aeruginosa strain PA14 in the liquid killing assay with or without LK56 at 32 µM. (B) Young adult glp-4(bn2) worms reared on vector or mdt-15(RNAi) were exposed to P. aeruginosa PA14 in the liquid killing assay in the presence of LK35, LK38, or DMSO. (C) Young adult glp-4(bn2) worms reared on vector or mdt-15(RNAi) and then exposed to E. faecalis or S. aureus in liquid-based assays in the presence or absence of LK56 at 32 µM. (D) Young adult glp-4(bn2) worms reared on vector, nhr-49(RNAi), or nhr-45(RNAi) were incubated with P. aeruginosa PA14 in the liquid killing assay with or without LK56 at 32 µM. Each replicate included at least six wells, with approximately 20 worms per well. The data shown are mean values from a representative replicate. *, P < 0.05; **, P < 0.01; ***, P < 0.001. P values were calculated using Student’s t test. Error bars represent the standard error of the mean. At least three biological replicates were performed.
MDT-15 partners with at least two different nuclear hormone receptors, NHR-45 and NHR-49, to regulate gene expression.

Row | Compound | TD50 (time to 50% death), life span [1] [days] | Rescue in liquid killing after RNAi of a panel of phosphatases, kinases, transcription factors and most upregulated genes [2] | Rescue in liquid killing after mdt-15(RNAi) [2] | Rescue in liquid killing after nhr-49(RNAi) ([2]; P. aeruginosa PA14, 32 µM)
1 | COC(=O)/C=C/C(=O)Nc1ccccc1 [LK32] | 8.8 | – | – | –
2 | CNC(=O)Oc1c(Br)cc2sc(=O)oc2c1Br [LK34] | 10.1 | rescue was unchanged | – | –
3 | CCN(CC)/N=N/c1ccc(C(=O)O)cc1 [LK35] | 7.7 | rescue was unchanged | no effect | –
4 | CN(C)/N=N/c1ccc(-c2cn(Cc3ccccc3)cn2)cc1 [LK38] | 7.6 | rescue was unchanged | no effect | –
5 | O=c1cc(CNc2ccc(Br)cc2)nc2sccn12 [LK56] | 7.8 | – | completely abolish LK56-dependent rescue | abolished compound rescue
